# From patent US20110045032A1 (priority 2001, published 2011)
# What was measured:
# [1] = test system: Intracellular Adenosine in various Rat Tissues; assay type: in vivo
# Protocol: Folinic acid (50 mg/kg) was administered intraperitoneally once daily for fourteen days. […] Hearts were removed from animals and flash frozen in liquid nitrogen with 10 seconds of death. Liver and lungs were removed en bloc and flash frozen with 30 seconds of death. Brain tissue was subsequently dissected.
# HT-29 SF cells [2] = assay: Reversal of DHEA-mediated growth inhibition by supplements; assay type: cell-based, human; conditions: 25 μM DHEA, 48 hours of treatment
# HT-29 SF cells [3] = assay: Reversal of DHEA effect on cell cycle by supplements; assay type: cell-based, human; conditions: 25 μM DHEA
# HT-29 SF cells [4] = assay: DHEA effect on cell cycle distribution (flow cytometry); assay type: cell-based, human; conditions: 25-200 μM, 24-72 hours; time- and dose-dependent
# Protocol: Cells were plated at 10^5/60-mm dish in duplicate. […] Cultures were trypsinized following […] and fixed and stained using a modification of a procedure of Bauer et al., Cancer Res., 46, 3173-3178 (1986). Briefly, cells were collected by centrifugation and resuspended in cold phosphate-buffered saline. Cells were fixed in 70% ethanol, washed, and resuspended in phosphate-buffered saline.
# After 24, 48, and 72 hours, cells were harvested, fixed in ethanol, and stained with propidium iodide, and the DNA content/cell was determined by flow cytometric analysis. The percentage of cells in G1, S, and G2M phases was calculated using the Cellfit cell cycle analysis program. S phase is marked by a quadrangle for clarity. Representative histograms from duplicate determinations are shown. The experiment was repeated three times.
# HT-29 SF cells [5] = assay: DHEA effect on cell growth (Coulter counter)
# Protocol: Cell cultures, HT-29 SF cells, which represent a subline of HY-29 cells (ATCC, Rockville, Md.) and are adapted for growth in completely defined serum-free PC-1 medium (Ventrex, Portland, Me.), were obtained. Stock cultures were maintained in this medium at 37° (in a humidified atmosphere containing 5% CO2).
# [6] = test system: adult acute asthma exacerbation; conditions: in conjunction with beta 2-agonists; adult and pediatric studies; cited from earlier work
# mast cell = conditions: cell incubation for 5 min; cited from earlier work
# [7] = test system: patients with mild-to-moderate asthma; conditions: cited from earlier work
# [8] = test system: dust mite-sensitized rabbits; assay: Adenosine sensitivity PC40 (Example 26 animals); conditions: 5 animals
# [9] = test system: dust mite-sensitized rabbits; assay: Adenosine sensitivity PC40 (Example 25 animals); conditions: 4 animals
# muscarinic receptors = conditions: cited from earlier work
# [10] = biological target: T1, M(1)-muscarinic receptors (Homo sapiens, UniProt P11229); conditions: cited from earlier work
# T1 sequence (P11229 1-460): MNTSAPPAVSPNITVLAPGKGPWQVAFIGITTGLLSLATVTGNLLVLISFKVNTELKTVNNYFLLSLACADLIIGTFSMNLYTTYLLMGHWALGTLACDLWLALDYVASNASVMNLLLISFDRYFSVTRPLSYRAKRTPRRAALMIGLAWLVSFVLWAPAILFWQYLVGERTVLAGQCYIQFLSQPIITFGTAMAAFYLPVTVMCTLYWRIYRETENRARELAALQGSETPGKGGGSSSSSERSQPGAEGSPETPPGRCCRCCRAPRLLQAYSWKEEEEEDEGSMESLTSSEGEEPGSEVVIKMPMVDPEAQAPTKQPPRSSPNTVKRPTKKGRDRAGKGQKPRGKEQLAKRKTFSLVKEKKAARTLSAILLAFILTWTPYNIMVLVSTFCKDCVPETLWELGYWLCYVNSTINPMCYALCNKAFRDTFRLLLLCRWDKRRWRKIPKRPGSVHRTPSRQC
# [11] = test system: asthmatic and chronic obstructive pulmonary disease (COPD) patients; conditions: cited from earlier work
# mast cells = conditions: cited from earlier work
smiles,measurement,setting,value
"Nc1nc(=O)c2c([nH]1)NCC(CNc1ccc(C(=O)N[C@@H](CCC(=O)O)C(=O)O)cc1)N2C=O (mixture of isomers) [Folinic Acid, Folinic acid]","adenosine levels, folinic acid administered alone",[1]; all organs studied,increase in adenosine levels
same,effect of co-administration of folinic acid on steroid-mediated adenosine depletion,[1]; co-administered with DHEA or methyltestosterone,completely abrogated
"CC(C)CCC[C@@H](C)[C@H]1CC[C@H]2[C@@H]3CC=C4C[C@@H](O)CC[C@]4(C)[C@H]3CC[C@]12C [CH, cholesterol]",reversal of DHEA-induced growth inhibition by supplement,HT-29 SF cells [2],no such effect
same,prevention of DHEA-induced S phase depletion,HT-29 SF cells [3]; 48 hours,very little effect
"C[C@]12CC[C@H](O)CC1=CC[C@@H]1[C@@H]2CC[C@]2(C)C(=O)CC[C@@H]12 [DHEA, dehydroepiandrosterone]",cell cycle effect (overall),HT-29 SF cells [4],G1 block
same,inhibition of growth,"HT-29 SF cells [5]; 0-200 μM, 0-72 hours",time- and dose-dependent inhibition of growth
same,exposure time after which cell number reduced compared to controls,HT-29 SF cells [5]; 25 or 50 μM DHEA,48 h
"CC(C)[N+]1(C)[C@@H]2CC[C@H]1C[C@@H](OC(=O)C(CO)c1ccccc1)C2 (stereo partly drawn) [IB, Ipratropium Bromide]",severe adverse effects attributable to ipratropium,[6],Neither the adult nor the pediatric studies reported severe adverse effects
same,inhibition of histamine release,mast cell,no distinction
"C[C@@](O)(CCO)CC(=O)O [MVA, mevalonic acid]",reversal of DHEA-induced growth inhibition by supplement,HT-29 SF cells [2],partially overcome
same,prevention of DHEA-induced S phase depletion,HT-29 SF cells [3]; 48 hours,partially prevented
same,prevention of DHEA-induced S phase depletion,HT-29 SF cells [3]; 72 hours,not
"CC(C)=CCC/C(C)=C/CC/C(C)=C/CC/C=C(\C)CC/C=C(\C)CCC=C(C)C [SQ, squalene]",reversal of DHEA-induced growth inhibition by supplement,HT-29 SF cells [2],no such effect
CC(c1cc2ccccc2s1)N(O)C(N)=O (stereo not drawn) [Zyflo],beta-agonist puffs per day lower than baseline,[7]; at the end of the study,31%
same,number of beta-agonist puffs needed per day,[7]; at the end of the study,1.77 puffs
same,patients requiring steroid rescue,[7]; compared with 18.7% placebo,7%
same,reduction in patients requiring steroid rescue vs placebo,"[7]; human, in vivo",62%
Nc1ncnc2c1ncn2[C@@H]1O[C@H](CO)[C@@H](O)[C@H]1O [adenosine],"PC40 for adenosine, mean",[8],4.5 mg/mL
same,"PC40 for adenosine, mean",[9],2.5 mg/mL
CN1[C@@H]2CC[C@H]1C[C@@H](OC(=O)C(CO)c1ccccc1)C2 (stereo partly drawn) [atropine],inhibition of histamine release,mast cell,no distinction
"C[N+]1(C)[C@@H]2C[C@@H](OC(=O)C(O)(c3cccs3)c3cccs3)C[C@H]1[C@@H]1O[C@@H]12 [tiotropium bromide, Tiotropium bromide]",affinity for muscarinic receptors,muscarinic receptors,high affinity
same,dissociation from receptor,[10],dissociates very slowly
same,duration of bronchodilator and bronchoprotective effect,"[11]; Phase II, single inhaled doses",over 24 h
same,patients with dryness of the mouth,"[11]; human, in vivo",approximately 10%
same,duration of stable bronchodilation,"[11]; phase III clinical trials, inhaled once daily",more than 24 hours
CCC(CO)(C(=O)OC1C[C@H]2CC[C@@H](C1)[N+]2(C)C)c1ccccc1.[I-] (stereo partly drawn) [troventol],decrease in speed of passive calcium ion uptake,mast cells,56.3%
same,inhibition of histamine release,mast cell,47%
